{"source": "paper PMC6563049", "about": "“Radiosynthesis of (R,S)‐[^18F]GE387: A Potential PET Radiotracer for Imaging Translocator Protein 18 kDa (TSPO) with Low Binding Sensitivity to the Human Gene Polymorphism rs6971” (Chemmedchem, 2019)", "key": {"TSPO A147T [1]": {"system": "TSPO A147T", "experiment": "Radioligand ([^3H]1) displacement binding on membranes of HEK cells stably transfected with A147T TSPO", "design": "species or system human", "settings": "for Ratio LAB/HAB: Ki at A147T TSPO / Ki at wild-type TSPO", "method": "(§1) Binding affinities were measured as per our published protocol.21 Briefly, an Ultra‐Turrax homogeniser was used to prepare membranes from HEK cells stably transfected with wild‐type and A147T TSPO. […] Reactions were terminated by filtration through a 96‐well glass‐fibre filter plate (Millipore), and washed eight times with ice‐cold 50 mM Tris⋅HCl. […] Data were analysed using GraphPad Prism 6.0, and a four‐parameter nonlinear regression curve fit was used to calculate K i values. Data are expressed as the mean±SEM from at least three independent experiments."}, "[2]": {"experiment": "In vivo PET imaging of the brain in healthy rats", "settings": "healthy male Wistar rats, i.v. tracer injection, 60 min acquisition, n=2", "method": "The time–activity curve indicates distribution of radioactivity in the brain, albeit in a modest amount as the investigated animals were healthy.\nMale Wistar rats (n=2; weight: 230 and 302 g) were obtained from Charles River Laboratories, UK. The rats were housed in Techniplast 2000P IVC cages on a layer of Aspen bedding in a room with constant temperature (21±2 °C) and fixed 12 h light–dark regime (lights on at 7:00 am). Food and water were available ad libitum. After arrival, the rats were allowed to acclimatise for at least seven days. This research was regulated under the Animals (Scientific Procedures) Act 1986 Amendment Regulations 2012 following ethical review by the University of Cambridge Animal Welfare and Ethical Review Body (AWERB).\nPrior to scanning, the animals were anaesthetised using isofluorane at a concentration of 5 % in O2, and anaesthesia was maintained at 1.5–2.5 % isofluorane in O2. The femoral vein was cannulated for tracer injection. […]\nThree‐dimensional regions of interest (ROIs) were drawn over the whole brain on an MRI template using PMOD software (version 3.2; PMOD technologies, Zurich, Switzerland). […] The results were expressed as dimensionless standardised uptake values (SUV=[(tissue activity)×(body weight)]/injected dose). SUVs were calculated assuming a specific gravity of 1 g mL^−1 for brain tissue."}, "rat heart TSPO": {"target": "rat heart TSPO", "design": "method as in earlier work", "settings": "read-out: affinity, rat heart TSPO assay; cited from earlier work"}, "human TSPO wild‐type": {"target": "T1, human TSPO wild‐type (Homo sapiens, UniProt P30536)", "T1 construct": "expressed in transfected cells; host or cells: HEK cells, stably transfected; membranes", "T1 sequence (P30536 whole entry T147A)": "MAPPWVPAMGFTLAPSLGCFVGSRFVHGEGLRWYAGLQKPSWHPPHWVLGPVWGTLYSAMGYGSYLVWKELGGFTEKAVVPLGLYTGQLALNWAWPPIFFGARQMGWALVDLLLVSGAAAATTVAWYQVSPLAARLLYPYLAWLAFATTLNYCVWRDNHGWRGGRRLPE", "experiment": "Radioligand ([^3H]1) displacement binding on membranes of HEK cells stably transfected with wild-type TSPO", "settings": "HEK cell membranes, [^3H]1 10 nM, 4 °C, 90 min; mean±SEM, n=3; read-out: Ki (nM) at WT (Ala/Ala) HAB", "method": "Binding affinities were measured as per our published protocol.21 Briefly, an Ultra‐Turrax homogeniser was used to prepare membranes from HEK cells stably transfected with wild‐type and A147T TSPO. […] Reactions were terminated by filtration through a 96‐well glass‐fibre filter plate (Millipore), and washed eight times with ice‐cold 50 mM Tris⋅HCl. Microscint 0 was added to the dry filters, and radioactivity read in a Microbeta^2 2450 Microplate Counter (PerkinElmer). Data were analysed using GraphPad Prism 6.0, and a four‐parameter nonlinear regression curve fit was used to calculate K i values. Data are expressed as the mean±SEM from at least three independent experiments."}, "TSPO A147T [3]": {"target": "T2, TSPO A147T (Homo sapiens, UniProt P30536)", "T2 construct": "expressed in transfected cells; host or cells: HEK cells, stably transfected; membranes", "T2 sequence (P30536 whole entry, stated change not applied)": "as the sequence (P30536 whole entry T147A) above, with A147T counted along it", "experiment": "Radioligand ([^3H]1) displacement binding on membranes of HEK cells stably transfected with A147T TSPO", "method": "as §1"}, "[4]": {"design": "method as in PMID 26697963, PMID 26551697, PMID 29114179", "settings": "cited from earlier work"}, "TSPO [5]": {"system": "TSPO", "settings": "cited from earlier work"}, "TSPO A147T [6]": {"system": "TSPO A147T", "design": "method as in PMID 30108706", "settings": "cited from earlier work"}, "TSPO [7]": {"system": "TSPO", "design": "method as in PMID 22244939", "settings": "rats; cited from earlier work"}}, "note": "Like-named read-outs stand apart in the source and are kept apart here."}
{"smiles": "CCN(Cc1ccccc1)C(=O)C1CCCc2c1c1c(OC)cccc1n2CCF", "note": "(racemic) [compound 6, N ‐Benzyl‐N‐ethyl‐9‐(2‐fluoroethyl)‐5‐methoxy‐2,3,4,9‐tetrahydro‐1H‐carbazole‐4‐carboxamide]", "values": [{"measurement": "sensitivity to the human gene polymorphism rs6971", "setting": "TSPO A147T [1]; conclusion from wild-type versus A147T binding", "value": "low sensitivity"}]}
{"smiles": "CCN(Cc1ccccc1)C(=O)C1CCCc2c1c1c(OC)cccc1n2CC[18F]", "note": "(racemic) [racemic [^18F]6]", "values": [{"measurement": "entry of radioactivity into the brain (PET)", "setting": "[2]", "value": "enters the brain"}]}
{"smiles": "CCN(Cc1ccccc1)C(=O)[C@@H]1CCCc2c1c1c(OC)cccc1n2CCF", "note": "[(R)-6, N ‐Benzyl‐N‐ethyl‐9‐(2‐fluoroethyl)‐5‐methoxy‐2,3,4,9‐tetrahydro‐1H‐carbazole‐4‐carboxamide]", "values": [{"measurement": "Ki", "setting": "rat heart TSPO", "value": 22, "unit": "nM"}]}
{"smiles": "CCN(CC)C(=O)[C@H]1CCCc2c1c1c(OC)cccc1n2CCF", "note": "[(S)-5]", "values": [{"measurement": "Ki", "setting": "human TSPO wild‐type", "value": "11.3 ± 0.6", "unit": "nM"}, {"measurement": "Ki", "setting": "TSPO A147T [3]; HEK cell membranes, [^3H]1 10 nM, 4 °C, 90 min, mean±SEM, n=3, read-out: Ki (nM) at Ala147Thr LAB", "value": "58.3 ± 6.4", "unit": "nM"}, {"measurement": "Ratio LAB/HAB", "setting": "TSPO A147T [1]", "value": 5.1}]}
{"smiles": "CCN(Cc1ccccc1)C(=O)[C@H]1CCCc2c1c1c(OC)cccc1n2CCF", "note": "[(S)-6, N ‐Benzyl‐N‐ethyl‐9‐(2‐fluoroethyl)‐5‐methoxy‐2,3,4,9‐tetrahydro‐1H‐carbazole‐4‐carboxamide]", "values": [{"measurement": "Ki", "setting": "human TSPO wild‐type", "value": "36.3 ± 6.9", "unit": "nM"}, {"measurement": "Ki", "setting": "TSPO A147T [3]", "value": "47.3 ± 7", "unit": "nM"}, {"measurement": "Ratio LAB/HAB", "setting": "TSPO A147T [1]", "value": 1.3}, {"measurement": "Ki", "setting": "rat heart TSPO", "value": 1.04, "unit": "nM"}]}
{"smiles": "CC[C@@H](C)N(C)C(=O)c1cc2ccccc2c(-c2ccccc2Cl)n1", "note": "[[^11C]1, R‐1‐(2‐chlorophenyl)‐N‐methyl‐N‐(1‐methylpropyl)‐3‐isoquinoline carboxamide]", "values": [{"measurement": "brain permeability", "setting": "[4]", "value": "low brain permeability"}]}
{"smiles": "CC[C@@H](C)N(C)C(=O)c1cc2ccccc2c(-c2ccccc2Cl)n1", "note": "[[^11C]1] [R‐1‐(2‐chlorophenyl)‐N‐methyl‐N‐(1‐methylpropyl)‐3‐isoquinoline carboxamide]", "values": [{"measurement": "affinity for TSPO", "setting": "TSPO [5]; selective antagonist of TSPO", "value": 9.3, "unit": "nM"}]}
{"smiles": "CCN(CC)C(=O)C1CCCc2c1c1c(OC)cccc1n2CC[18F]", "note": "(stereo not shown) [[^18F]5]", "values": [{"measurement": "binding affinity ratio LABs/HABs", "setting": "TSPO A147T [6]", "value": 5.1}, {"measurement": "affinity for TSPO (in words)", "setting": "TSPO [5]", "value": "good affinity"}, {"measurement": "brain uptake", "setting": "TSPO [7]", "value": "good brain uptake"}, {"measurement": "specific binding", "setting": "TSPO [7]", "value": "high specific binding"}]}
